The text below walks through data of article PMC6277375, “Pharmacological profile of the neuropeptide S receptor: Dynamic mass redistribution studies” (Pharmacology Research & Perspectives, 2018).

Marks after values point to notes of the source that are not given here. Square brackets hold non-standard residues; d marks the D form. Ends that are not written are not given here. Peptide text beside a SMILES is read from it. Bip = N[C@@H](Cc1ccc(-c2ccccc2)cc1)C(=O)O; Aib = CC(C)(N)C(=O)O

One test concerns the target T1, murine NPSR (Mus musculus, UniProt Q8BZP8).
T1 construct: expressed in transfected cells
T1 sequence (Q8BZP8 1-371): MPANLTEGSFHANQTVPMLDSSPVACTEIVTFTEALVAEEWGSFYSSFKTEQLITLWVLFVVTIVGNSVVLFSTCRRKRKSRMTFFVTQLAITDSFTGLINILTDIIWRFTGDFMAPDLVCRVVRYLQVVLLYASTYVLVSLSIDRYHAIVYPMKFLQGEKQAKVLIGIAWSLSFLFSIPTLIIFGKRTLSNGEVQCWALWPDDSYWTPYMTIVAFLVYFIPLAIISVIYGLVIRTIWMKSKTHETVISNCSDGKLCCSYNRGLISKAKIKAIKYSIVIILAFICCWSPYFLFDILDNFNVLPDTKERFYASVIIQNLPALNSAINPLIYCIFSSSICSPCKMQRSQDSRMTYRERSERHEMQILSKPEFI
The test can be described thus: Dynamic mass redistribution (DMR) assay in HEK293mNPSR cells. Conditions: for DMR response, HEK293mNPSR pm ± SEM: peak at 60 minute, mean ± SEM, duplicate; for EC50 / intrinsic activity α ± SEM / Agonist potency pEC50 (CL95%): DMR; for EC50 / Agonist potency pEC50 (CL95%): agonism protocol, 60 minute recording, at least three experiments in duplicate; for EC50: read-out: Agonist potency pEC50 (CL95%) (converted); for fold less potent than NPS (DMR): agonist potency relative to NPS; for Effect of inhibitor on NPS-evoked DMR response: FR900359 1 μmol L^−1 (60 minute before NPS), PTX 100 ng mL^−1 (24 hours before), rolipram 10 μmol L^−1 (90 minute before). The test is classed as cell-based. The method, then: (§1) HEK293 cells stably expressing the murine NPSR receptor (HEK293mNPSR) were described previously.3 Wild‐type HEK293 cells were used as a control. Cells were maintained in Dulbecco's Medium (DMEM) supplemented with 10% fetal bovine serum, 100 U/mL penicillin, 100 μg/mL streptomycin and, 2 mmol L^−1 L‐glutamine. The medium was complemented with 100 mg/L hygromycin for HEK293mNPSR. Cells were cultured at 37°C in 5% CO2 humidified air.
Confluent cells were subcultured using trypsin/EDTA and used for experiments. […] On the day of the experiment, cells were manually washed twice and maintained with assay buffer for 90 minutes before DMR experiments. DMR was monitored in real time with a temporal resolution of 22 seconds throughout the assay. Experiments were performed at 37°C, using an EnSight Multimode Plate Reader (PerkinElmer), that uses the Corning® Epic® Technology to measure the DMR signal. Agonism protocol: a 5‐minute baseline was first established, followed by adding compounds manually in a volume of 10 μL and recording compounds‐triggered DMR signal for 60 minute. Antagonism protocol: antagonists were added manually 25 minute before reading the 5‐minute baseline. After baseline establishment, NPS was injected and DMR signal was recorded for 60 minute. Antagonist properties of ligands were measured by assessing the concentration‐response curve to NPS in the absence and in presence of a fixed concentration of compound. FR900359 was added 60 minute before NPS, rolipram was incubated for 90 minute before NPS, while PTX was added 24 hours before NPS. Maximum picometer (pm) modifications (peak measured at 60 minute time point) were used to determine agonist response after baseline normalization.
All data were analyzed using Graph Pad Prism 6.0 (La Jolla, CA, USA). Concentration‐response curves were fitted using the four parameters log logistic equation. Data are expressed as mean ± SEM of n experiments performed in duplicate and were analyzed using one‐ or two‐way analysis of variance (ANOVA) followed by Dunnett's or Tukey's test for multiple comparisons wherever appropriate. […] Antagonists potencies were assayed at single concentrations against the concentration‐response curve to NPS and their pA2 was derived using the following equation: pA2 = log(CR − 1) − log[A], where CR is the ratio between agonist potency (EC50) in the presence and in absence of antagonist and [A] is the molar concentration of antagonist.

The subject of another test is wild-type HEK293 cells. The test can be described thus: DMR assay in wild-type HEK293 cells (control). The test is classed as cell-based, Human. Conditions: mean ± SEM, duplicate. The method, then: as §1
Confluent cells were subcultured using trypsin/EDTA and used for experiments. Cells were seeded at a density of 20 000 cells/well in 30 μL into fibronectin‐coated Enspire™‐LC 384‐wells plates and cultured for 20 hours to form a confluent monolayer. On the day of the experiment, cells were manually washed twice and maintained with assay buffer for 90 minutes before DMR experiments. DMR was monitored in real time with a temporal resolution of 22 seconds throughout the assay. Experiments were performed at 37°C, using an EnSight Multimode Plate Reader (PerkinElmer), that uses the Corning® Epic® Technology to measure the DMR signal. Agonism protocol: a 5‐minute baseline was first established, followed by adding compounds manually in a volume of 10 μL and recording compounds‐triggered DMR signal for 60 minute. Antagonism protocol: antagonists were added manually 25 minute before reading the 5‐minute baseline. After baseline establishment, NPS was injected and DMR signal was recorded for 60 minute. Antagonist properties of ligands were measured by assessing the concentration‐response curve to NPS in the absence and in presence of a fixed concentration of compound. FR900359 was added 60 minute before NPS, rolipram was incubated for 90 minute before NPS, while PTX was added 24 hours before NPS. Maximum picometer (pm) modifications (peak measured at 60 minute time point) were used to determine agonist response after baseline normalization.
All data were analyzed using Graph Pad Prism 6.0 (La Jolla, CA, USA). Concentration‐response curves were fitted using the four parameters log logistic equation. Data are expressed as mean ± SEM of n experiments performed in duplicate and were analyzed using one‐ or two‐way analysis of variance (ANOVA) followed by Dunnett's or Tukey's test for multiple comparisons wherever appropriate. Agonist potency was expressed as pEC50, which is the negative logarithm to base 10 of the agonist molar concentration that produces 50% of the maximal possible effect of that agonist. Antagonists potencies were assayed at single concentrations against the concentration‐response curve to NPS and their pA2 was derived using the following equation: pA2 = log(CR − 1) − log[A], where CR is the ratio between agonist potency (EC50) in the presence and in absence of antagonist and [A] is the molar concentration of antagonist.

Setting [1] is: ligand 1 μmol L^−1, 37°C, peak at 60 minute.
The mark [2] stands for this setting: ligand 10 μmol L^−1, 37°C, peak at 60 minute after baseline normalization.

For the compound `C[N+](C)(C)CCOC(N)=O` [Carbachol, reference compound], the “DMR response, HEK293mNPSR pm ± SEM” value on murine NPSR (ligand 100 μmol L^−1, 37°C) is on record as 393 ± 9 ^a pm. Further, the “DMR response, HEK293 pm ± SEM” value with wild-type HEK293 cells (ligand 100 μmol L^−1, 37°C, peak at 60 minute) was 480 ± 51 ^a pm.
With `CSCC[C@H](NC(=O)CNC(=O)[C@@H](NC(=O)CNC(=O)[C@@H](NC(=O)C(C)(C)NC(=O)[C@H](CC(N)=O)NC(=O)[C@H](CCCNC(=N)N)NC(=O)[C@H](Cc1ccccc1)NC(=O)[C@@H](N)CO)C(C)C)[C@@H](C)O)C(=O)N[C@@H](CCCCN)C(=O)N[C@@H](CCCCN)C(=O)N[C@H](C(=O)N[C@@H](CO)C(=O)N[C@@H](Cc1ccccc1)C(=O)N[C@@H](CCC(N)=O)C(=O)N[C@@H](CCCNC(=N)N)C(=O)N[C@@H](C)C(=O)N[C@@H](CCCCN)C(=O)N[C@@H](CO)C(=O)O)[C@@H](C)O` [[Aib^5]NPS] (H-SFRN[Aib]VGTGMKKTSFQRAKS-OH), the EC50 at murine NPSR was 145 nM.
`CSCC[C@H](NC(=O)CNC(=O)[C@@H](NC(=O)CNC(=O)[C@@H](NC(=O)CNC(=O)[C@H](CC(N)=O)NC(=O)[C@H](CCCNC(=N)N)NC(=O)[C@H](Cc1ccc(-c2ccccc2)cc1)NC(=O)[C@@H](N)CO)C(C)C)[C@@H](C)O)C(=O)N[C@@H](CCCCN)C(=O)N[C@@H](CCCCN)C(=O)N[C@H](C(=O)N[C@@H](CO)C(=O)N[C@@H](Cc1ccccc1)C(=O)N[C@@H](CCC(N)=O)C(=O)N[C@@H](CCCNC(=N)N)C(=O)N[C@@H](C)C(=O)N[C@@H](CCCCN)C(=O)N[C@@H](CO)C(=O)O)[C@@H](C)O` [[Bip^2]NPS] (H-S[Bip]RNGVGTGMKKTSFQRAKS-OH; N-terminus and C-terminus assumed): the “intrinsic activity α ± SEM” value at murine NPSR (relative to NPS = 1.00, SEM) is recorded as 1.01 ± 0.04. For the same compound, the “fold less potent than NPS (DMR)” value at murine NPSR is “approximately 30 fold”. For the same compound, the “DMR response, HEK293mNPSR pm ± SEM” value on murine NPSR (ligand 1 μmol L^−1, 37°C) is 577 ± 2 ^a pm; on murine NPSR (ligand 10 μmol L^−1, 37°C), 761 ± 60 ^a pm. The results for the “DMR response, HEK293 pm ± SEM” value with wild-type HEK293 cells (setting [1]) and in the test on wild-type HEK293 cells (setting [2]) were 47 ± 16 pm and 191 ± 30 ^a pm, respectively.
With `CSCC[C@H](NC(=O)CNC(=O)[C@@H](NC(=O)CNC(=O)[C@@H](NC(=O)[C@@H](C)NC(=O)[C@H](CC(N)=O)NC(=O)[C@H](CCCNC(=N)N)NC(=O)[C@H](Cc1ccccc1)NC(=O)[C@@H](N)CO)C(C)C)[C@@H](C)O)C(=O)N[C@@H](CCCCN)C(=O)N[C@@H](CCCCN)C(=O)N[C@H](C(=O)N[C@@H](CO)C(=O)N[C@@H](Cc1ccccc1)C(=O)N[C@@H](CCC(N)=O)C(=O)N[C@@H](CCCNC(=N)N)C(=O)N[C@@H](C)C(=O)N[C@@H](CCCCN)C(=O)N[C@@H](CO)C(=O)O)[C@@H](C)O` [[D‐Ala^5]NPS] (H-SFRN[dA]VGTGMKKTSFQRAKS-OH; N-terminus and C-terminus assumed), the “intrinsic activity α ± SEM” value at murine NPSR (relative to NPS = 1.00, SEM) worked out at 1.09 ± 0.04. Besides, the “fold less potent than NPS (DMR)” value on murine NPSR is listed as “approximately 30 fold”. Also, the “DMR response, HEK293mNPSR pm ± SEM” value at murine NPSR (ligand 10 μmol L^−1, 37°C) is reported as 686 ± 50 ^a pm. In the test on wild-type HEK293 cells (setting [2]), the “DMR response, HEK293 pm ± SEM” value was determined as 55 ± 14 pm.
Regarding `COc1ccc(C2CNC(=O)C2)cc1OC1CCCC1` (stereo not shown) [rolipram, reference compound], at murine NPSR, the “Effect of inhibitor on NPS-evoked DMR response” value is reported as “did not change NPS effects”.
For FRNGVGTGMKKTSFQRAKS [NPS(2‐20)], on murine NPSR (relative to NPS = 1.00, SEM), the “intrinsic activity α ± SEM” value was 1.14 ± 0.05. For the same compound, on murine NPSR, the “fold less potent than NPS (DMR)” value is recorded as “approximately 30 fold”. At murine NPSR (ligand 10 μmol L^−1, 37°C), the “DMR response, HEK293mNPSR pm ± SEM” value is 782 ± 46 ^a pm. Moreover, the “DMR response, HEK293 pm ± SEM” value in the test on wild-type HEK293 cells (setting [2]) was 70 ± 10 pm.
Turning to “NPS(1‐6): NPS fragment (SFRNGV; Neuropeptide S; UniProt P0C0P6 70-75, looked up, fragment)”, in the test with murine NPSR, the “Agonist potency pEC50 (CL95%)” value is given as “crc incomplete”. For the same compound, the “intrinsic activity α ± SEM” value in the test with murine NPSR (relative to NPS = 1.00) is listed as “crc incomplete”. For the same compound, the “DMR response, HEK293mNPSR pm ± SEM” value in the test with murine NPSR (ligand 10 μmol L^−1, 37°C) is 356 ± 48 ^a pm. The “DMR response, HEK293 pm ± SEM” value in the test on wild-type HEK293 cells (setting [2]) is given as 25 ± 10 pm.
“NPS(3‐20): NPS fragment (RNGVGTGMKKTSFQRAKS; Neuropeptide S; UniProt P0C0P6 72-89, looked up, fragment)”: the “Agonist potency pEC50 (CL95%)” value in the test with murine NPSR is recorded as “crc incomplete”. In addition, the “intrinsic activity α ± SEM” value with murine NPSR (relative to NPS = 1.00) is “crc incomplete”. Further, the “DMR response, HEK293mNPSR pm ± SEM” value in the test with murine NPSR (ligand 1 μmol L^−1, 37°C) is listed as 315 ± 17 ^a pm; in the test with murine NPSR (ligand 10 μmol L^−1, 37°C), 675 ± 54 ^a pm. In addition, the “DMR response, HEK293 pm ± SEM” value is recorded as 41 ± 14 pm in the test on wild-type HEK293 cells (setting [1]) and 166 ± 14 ^a pm in the test with wild-type HEK293 cells (setting [2]).
Consider Pertussis Toxin [PTX], for which, on murine NPSR, the “Effect of inhibitor on NPS-evoked DMR response” value was “did not modify NPS‐evoked DMR response”.
For SFRNGVATGMKKTSFQRAKS [[Ala^7]NPS], on murine NPSR (relative to NPS = 1.00, SEM), the “intrinsic activity α ± SEM” value is recorded as 1.03 ± 0.03. Moreover, the “DMR response, HEK293mNPSR pm ± SEM” value on murine NPSR (ligand 10 μmol L^−1, 37°C) is given as 692 ± 15 ^a pm. Besides, the “DMR response, HEK293 pm ± SEM” value with wild-type HEK293 cells (setting [2]) stood at 115 ± 33 pm.
In the case of SFRNGVGTGM [NPS(1‐10)], the “intrinsic activity α ± SEM” value on murine NPSR (relative to NPS = 1.00, SEM) was determined as 1.09 ± 0.14. Besides, the entries for the “fold less potent than NPS (DMR)” value at murine NPSR and on murine NPSR (listed as NPS (1‐10)) were 100 fold and “approximately 100 fold”, respectively. Besides, the “DMR response, HEK293mNPSR pm ± SEM” value on murine NPSR (ligand 10 μmol L^−1, 37°C) was 683 ± 90 ^a pm. Moreover, the “DMR response, HEK293 pm ± SEM” value in the test with wild-type HEK293 cells (setting [2]) turned out to be 27 ± 6 pm.
Take “SFRNGVGTGMKKTSFQRAKS [NPS, Neuropeptide S]”: the EC50 at murine NPSR is 1.66 nM.
[D‐Val^5]NPS: at murine NPSR, the “Agonist potency pEC50 (CL95%)” value is given as “Inactive”. Also, the “intrinsic activity α ± SEM” value at murine NPSR (relative to NPS = 1.00) is given as “Inactive”.
